Data reported in ChEMBL document CHEMBL1144301, “Non-peptidic small molecule inhibitors of XIAP” (Bioorg Med Chem Lett, 2005).

Biological target: E3 ubiquitin-protein ligase XIAP (Homo sapiens, UniProt P98170)
Experiment: Dissociation constant against BIR3 domain of X-linked IAP in fluorescence polarization anisotropy competition assay

Sequence of E3 ubiquitin-protein ligase XIAP (P98170 whole entry, the tested form may be a part): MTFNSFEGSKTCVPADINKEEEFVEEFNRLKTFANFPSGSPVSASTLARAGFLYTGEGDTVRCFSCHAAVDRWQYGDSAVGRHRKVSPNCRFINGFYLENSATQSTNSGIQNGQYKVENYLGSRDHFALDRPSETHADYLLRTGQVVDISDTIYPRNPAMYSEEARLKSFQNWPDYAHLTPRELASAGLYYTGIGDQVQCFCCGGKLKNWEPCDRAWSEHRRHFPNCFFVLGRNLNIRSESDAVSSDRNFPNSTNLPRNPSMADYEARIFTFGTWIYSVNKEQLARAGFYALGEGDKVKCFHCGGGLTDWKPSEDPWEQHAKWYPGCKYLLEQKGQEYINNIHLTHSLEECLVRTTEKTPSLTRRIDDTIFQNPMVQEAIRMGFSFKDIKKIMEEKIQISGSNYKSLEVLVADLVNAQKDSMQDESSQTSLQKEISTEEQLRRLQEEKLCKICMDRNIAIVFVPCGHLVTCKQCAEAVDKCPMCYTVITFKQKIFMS

C[C@H](N)C(=O)Nc1nc(-c2cccc(Cc3ccccc3)c2)c(Cc2ccccc2)s1
Kd: > 100 µM
